These results are taken from patent publication US9464084B2, “P2X7 modulators” (Janssen Pharmaceutica NV, priority 2013, dated 2016).

By Ki is commonly meant the dissociation constant of the complex between target and ligand, obtained from inhibition or displacement. A high value points to lower affinity. The term IC50 denotes the midpoint of a concentration-inhibition curve.

The target in experiment [1] is T1, P2X7 (Homo sapiens (Human), UniProt Q99572). Put plainly: Radioligand binding, tritiated A-804598, human P2X7-1321N1 cell membranes.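 Also: ki obtained from the binding IC50 after correction for tracer concentration and tracer affinity.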 The following applies: 1 hour at 4° C.
Procedure: (§1) On the day of the experiment, cell membrane preparations were made according to standard published methods. […] The assay was terminated by filtration (GF/B filters pre-soaked with 0.3% PEI) and washed with washing buffer (Tris-HCl 50 mM). The IC50 generated in the binding assay was corrected for tracer concentration and affinity of the tracer to derive at the affinity (Ki) of the test compounds.
The target in experiment [2] is T2, rat P2X7 (Rattus norvegicus (Rat), UniProt Q64663). Put plainly: Ca2+ flux (FLIPR) in 1321N1 cells expressing recombinant rat P2X7 channel.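 Also: Calcium-4 dye fluorescence change read 180 s after agonist addition, following 30 min cell preincubation with test compound.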 In kind it is cell-based. The following applies: 250 μM BzATP. (Calcium flux is commonly read through the fluorescence of an indicator in the cells.)
In experiment [3] the target is T1, P2X7. Put plainly: P2X7 antagonism in human PBMCs (LPS + Bz-ATP induced IL-1β release, ELISA).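 As to all read-outs here: PBMCs from donor human blood, with a further 1.5 h incubation of the cells in the assay.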 In kind it is cell-based. The note with it: LPS 30 ng/ml, Bz-ATP 0.5 mM; for PBMC 10 μM (% control): compound 10 μM. On the technique in general: In an ELISA, binding on a coated surface is turned into a signal by an enzyme label.
Experiment [4] has as its target T2, rat P2X7. Put plainly: Radioligand binding, tritiated A-804598, rat P2X7-1321N1 cell membranes. The following applies: 1 hour at 4° C.
Procedure: as §1
The target of experiment [5] is T1, P2X7. Put plainly: Ca2+ flux (FLIPR) in 1321N1 cells expressing recombinant human P2X7 channel.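 Also: Calcium-4 dye-loaded cells exposed to compound for 30 min before agonist addition, fluorescence change read 180 s after agonist.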 The experiment is classed as cell-based. The following applies: 250 μM BzATP.
For experiment [6], the target named is T1, P2X7. Put plainly: P2X7 antagonism in human whole blood (LPS + Bz-ATP induced IL-1β release, ELISA). The experiment is classed as cell-based. The note with it: LPS 30 ng/ml, Bz-ATP 1 mM.
Procedure: Human blood was collected using a blood donor program. PBMCs were isolated from blood using a Ficoll density gradient technique. Briefly, blood was laid on Ficoll solution and centrifuged at RT for 20 minutes at 2000 rpm. The buffy layer (between red blood cells and plasma) was carefully collected by aspiration, washed with PBS and centrifuged again at 1500 rpm for 15 minutes. The resulting cell pellet was washed and plated on 96 well-plates for experiments. For the Mouse/Human Whole Blood experiments, 150 μl of either mouse or human blood was platted on 96 well-plates. Lipopolysaccharide (LPS) (30 ng/ml) was added to each well and incubated for 1 hour. Test compounds were then added and incubated for 30 minutes. The P2X7 agonist, 2′(3′)-O-(4-benzoylbenzoyl) adenosine 5′ triphosphate (Bz-ATP) was then added at a final concentration of 0.5 mM (PBMC) or 1 mM (blood). Cells were incubated for an additional 1.5 hours. At that point, supernatant was collected and stored for IL-1β assay using manufacturer's protocol for enzyme-linked immunosorbent assay (ELISA). Data was expressed as percent control, where control is defined as the difference in IL-1β release in LPS+Bz-ATP samples and LPS only samples. Data was plotted as response (% control) versus concentration to generate IC50 values.

T2 sequence (Q64663 whole entry): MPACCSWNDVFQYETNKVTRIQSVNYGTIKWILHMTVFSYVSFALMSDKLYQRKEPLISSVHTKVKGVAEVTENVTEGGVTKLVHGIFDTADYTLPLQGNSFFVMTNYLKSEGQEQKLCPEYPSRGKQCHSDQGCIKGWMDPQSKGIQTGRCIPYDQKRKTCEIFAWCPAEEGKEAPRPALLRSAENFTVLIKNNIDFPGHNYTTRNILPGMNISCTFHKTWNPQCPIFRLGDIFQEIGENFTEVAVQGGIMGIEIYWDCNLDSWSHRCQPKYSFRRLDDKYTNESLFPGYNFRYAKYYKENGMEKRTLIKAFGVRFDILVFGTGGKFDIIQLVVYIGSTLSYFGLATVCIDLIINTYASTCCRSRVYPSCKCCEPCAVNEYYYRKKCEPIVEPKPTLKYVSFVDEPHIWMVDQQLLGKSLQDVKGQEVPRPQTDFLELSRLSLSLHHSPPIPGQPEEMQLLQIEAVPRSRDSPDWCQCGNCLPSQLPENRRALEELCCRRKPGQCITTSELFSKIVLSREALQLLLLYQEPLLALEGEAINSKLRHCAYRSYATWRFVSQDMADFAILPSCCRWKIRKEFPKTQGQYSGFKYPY
T1 sequence (Q99572 whole entry): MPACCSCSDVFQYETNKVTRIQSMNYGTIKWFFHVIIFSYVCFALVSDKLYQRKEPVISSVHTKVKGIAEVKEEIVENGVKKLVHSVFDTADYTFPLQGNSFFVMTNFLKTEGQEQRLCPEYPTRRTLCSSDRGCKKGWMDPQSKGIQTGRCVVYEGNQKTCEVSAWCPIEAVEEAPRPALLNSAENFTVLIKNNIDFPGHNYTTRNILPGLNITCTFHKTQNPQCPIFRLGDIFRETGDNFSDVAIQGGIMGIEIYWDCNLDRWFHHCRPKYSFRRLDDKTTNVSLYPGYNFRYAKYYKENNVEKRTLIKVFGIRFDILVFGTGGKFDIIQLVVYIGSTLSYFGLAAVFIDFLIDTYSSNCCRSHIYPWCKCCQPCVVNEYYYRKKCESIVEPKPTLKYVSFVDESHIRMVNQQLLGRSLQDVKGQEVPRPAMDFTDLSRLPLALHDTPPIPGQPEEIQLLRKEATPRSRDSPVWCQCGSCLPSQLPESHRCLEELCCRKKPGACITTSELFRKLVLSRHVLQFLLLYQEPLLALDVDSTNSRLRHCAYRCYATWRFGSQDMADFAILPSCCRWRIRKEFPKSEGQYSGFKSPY

`O=C(c1cccc(C(F)(F)F)c1Cl)N1CCc2c(-c3ccccc3)n[nH]c2C1` [Example 99, (2-Chloro-3-(trifluoromethyl)phenyl)(3-phenyl-4,5-dihydro-1H-pyrazolo[3,4-c]pyridin-6(7H)-yl)methanone]: the results for the Ki on P2X7 [1] and on rat P2X7 [4] were 81.3 nM and 741 nM, respectively. In addition, the IC50 at rat P2X7 [2] was 195 nM; at P2X7 [5] it was 11.5 nM. For the same compound, the “PBMC 1 μM (% control)” value at P2X7 [3] (compound 1 μM) is reported as 7.0 % control.

`O=C(c1ccc(F)c(Cl)c1Cl)N1CCc2c(nnn2-c2ccccn2)C1` [Example 130, (2,3-Dichloro-4-fluorophenyl)(1-(pyridin-2-yl)-6,7-dihydro-1H-[1,2,3]triazolo[4,5-c]pyridin-5(4H)-yl)methanone] yielded a Ki on P2X7 [1] of 50.1 nM. Besides, the IC50 at rat P2X7 [2] amounted to 154 nM; at P2X7 [6], 501 nM; on P2X7 [5], 3.6 nM. The “PBMC 10 μM (% control)” value on P2X7 [3] worked out at 3.7 % control.

Compound `O=C(c1cccc(Cl)c1Cl)N1CCc2c(nnn2-c2ncccn2)C1` [Example 67, 5-[(2,3-Dichlorophenyl)carbonyl]-1-pyrimidin-2-yl-4,5,6,7-tetrahydro-1H-[1,2,3]triazolo[4,5-c]pyridine] registered a Ki at P2X7 [1] of 7.9 nM. The IC50 at rat P2X7 [2] is 78.9 nM; on P2X7 [6] it was 158 nM; on P2X7 [5] it was 3 nM. Further, at P2X7 [3], the “PBMC 10 μM (% control)” value is 6.5 % control.

For the compound `Cc1ccnc(-n2nnc3c2CCN(C(=O)c2cccc(C(F)(F)F)c2Cl)[C@@H]3C)n1` [Example 235, (4R)-(2-Chloro-3-(trifluoromethyl)phenyl)(4-methyl-1-(4-methylpyrimidin-2-yl)-6,7-dihydro-1H-[1,2,3]triazolo[4,5-c]pyridin-5(4H)-yl)methanone], the Ki at P2X7 [1] came out at 14.1 nM; on rat P2X7 [4] it was 3.1 nM. Further, the IC50 at rat P2X7 [2] was 6.6 nM; on P2X7 [5] it was 5.4 nM. Further, the “PBMC 10 μM (% control)” value at P2X7 [3] was −3.7 % control.

For the compound `C[C@H]1c2nnn(-c3ccn(C)n3)c2CCN1C(=O)c1cccc(C(F)(F)F)c1Cl` (single isomer, unassigned) [Example 170, (S*)-(2-Chloro-3-(trifluoromethyl)phenyl)(4-methyl-1-(1-methyl-1H-pyrazol-3-yl)-6,7-dihydro-1H-[1,2,3]triazolo[4,5-c]pyridin-5(4H)-yl)methanone], the Ki on P2X7 [1] worked out at 20 nM; at rat P2X7 [4], 3.2 nM. In addition, the figures for the IC50 at rat P2X7 [2] and at P2X7 [5] were 10.2 nM and 8.9 nM, respectively. The “PBMC 10 μM (% control)” value on P2X7 [3] is given as −5.7 % control.

In turn, `O=C(c1cccc(Cl)c1Cl)N1CCc2c(nnn2-c2cnccn2)C1` [Example 70, 5-[(2,3-Dichlorophenyl)carbonyl]-1-pyrazin-2-yl-4,5,6,7-tetrahydro-1H-[1,2,3]triazolo[4,5-c]pyridine] yielded a Ki on P2X7 [1] of 12.6 nM. Besides, the IC50 at rat P2X7 [2] was 1330 nM; at P2X7 [6], 501 nM; on P2X7 [5], 7.5 nM. At P2X7 [3], the “PBMC 10 μM (% control)” value was determined as 10.6 % control.

Compound `O=C(c1cccc(C(F)(F)F)c1F)N1CCc2c(nnn2-c2ncccn2)C1` [Example 66, 5-{[2-Fluoro-3-(trifluoromethyl)phenyl]carbonyl}-1-pyrimidin-2-yl-4,5,6,7-tetrahydro-1H-[1,2,3]triazolo[4,5-c]pyridine] came in with a Ki at P2X7 [1] of 15.8 nM. Also, the IC50 on rat P2X7 [2] amounted to 206 nM; at P2X7 [6] it was 363 nM; on P2X7 [5], 17.4 nM. For the same compound, the “PBMC 10 μM (% control)” value at P2X7 [3] is given as 2.7 % control.

In the case of `C[C@H]1c2nnn(-c3ccn(CCF)n3)c2CCN1C(=O)c1cccc(C(F)(F)F)c1Cl` (single isomer, unassigned) [Example 172, (S*)-(2-Chloro-3-(trifluoromethyl)phenyl)(1-(1-(2-fluoroethyl)-1H-pyrazol-3-yl)-4-methyl-6,7-dihydro-1H-[1,2,3]triazolo[4,5-c]pyridin-5(4H)-yl)methanone], on rat P2X7 [2], the IC50 turned out to be 5.4 nM. Further, on P2X7 [3], the “PBMC 10 μM (% control)” value is given as −6.0 % control. This compound also showed a Ki on rat P2X7 [4] of 5 nM.

Turning to `Cc1c(C(=O)N2CCc3c(nnn3-c3ncccn3)C2)cccc1C(F)(F)F` [Example 281, (2-methyl-3-(trifluoromethyl)phenyl)(1-(pyrimidin-2-yl)-6,7-dihydro-1H-[1,2,3]triazolo[4,5-c]pyridin-5(4H)-yl)methanone], affinity on P2X7 [1] was put at a Ki of 2.3 nM. Also, the IC50 on rat P2X7 [2] stood at 163 nM; on P2X7 [5] it was 3.1 nM. Also, the “PBMC 10 μM (% control)” value on P2X7 [3] is −1.9 % control.

As to `O=C(c1cccc(C(F)(F)F)c1Cl)N1CCc2c(nnn2-c2cc(F)ccn2)C1` [Example 131, (2-Chloro-3-(trifluoromethyl)phenyl)(1-(4-fluoropyridin-2-yl)-6,7-dihydro-1H-[1,2,3]triazolo[4,5-c]pyridin-5(4H)-yl)methanone], at P2X7 [1], the Ki was determined as 50.1 nM. In addition, the IC50 amounted to 51.5 nM at rat P2X7 [2], 316 nM on P2X7 [6] and 2.9 nM at P2X7 [5]. Moreover, the “PBMC 10 μM (% control)” value at P2X7 [3] was determined as 8.3 % control.
